Measured values: patent US20070265165A1, “NOVEL HERBICIDES” (Syngenta Crop Protection, Inc., priority 1998, published 2007)

How the values were obtained:
Type in all cases: in vivo
[1] = system: Setaria; experiment: Post-emergent herbicidal action; conditions: 2000 g AS/ha sprayed in the 4- to 6-leaf stage; evaluated about 18 days later; rating scale 1-9 (1=total damage, 9=no action)
From the text: (§1) In a greenhouse, monocot and dicot test plants are sown in standard soil in plastic pots and sprayed in the 4- to 6-leaf stage with an aqueous suspension of the test compounds of formula I prepared from a 25% wettable powder [Example F3, b) of WO 97/34485] or with an emulsion of the test compound of formula I prepared from a 25% emulsifiable concentrate [Example F1 c) of WO 97/34485] at a concentration of 2 kg active substance/ha (500 l of water/ha). The test plants are then further cultivated in the greenhouse under optimum conditions. The test is evaluated about 18 days later on a rating scale of 1-9 (1=total damage, 9=no action). Ratings of 1 to 4 (especially of 1 to 3) denote good to very good herbicidal action.

[2] = system: Cyperus; experiment: Post-emergent herbicidal action; conditions: 2000 g AS/ha sprayed in the 4- to 6-leaf stage; evaluated about 18 days later; rating scale 1-9 (1=total damage, 9=no action)
From the text: as §1

[3] = system: Stellaria; experiment: Post-emergent herbicidal action; conditions: 2000 g AS/ha sprayed in the 4- to 6-leaf stage; evaluated about 18 days later; rating scale 1-9 (1=total damage, 9=no action)
From the text: as §1

[4] = system: Solanig; experiment: Post-emergent herbicidal action; conditions: 2000 g AS/ha sprayed in the 4- to 6-leaf stage; evaluated about 18 days later; rating scale 1-9 (1=total damage, 9=no action)
From the text: as §1

[5] = system: Sinapsis; experiment: Post-emergent herbicidal action; conditions: 2000 g AS/ha sprayed in the 4- to 6-leaf stage; evaluated about 18 days later; rating scale 1-9 (1=total damage, 9=no action)
From the text: as §1

[6] = system: Setaria; experiment: Pre-emergent herbicidal action; conditions: 2000 g AS/ha sprayed immediately after sowing; evaluated 3 weeks later; rating scale 1-9 (1=total damage, 9=no action)
From the text: (§2) Monocot and dicot test plants are sown in standard soil in plastic pots. Immediately after sowing, the plants are sprayed at a concentration of 2 kg active substance/ha with an aqueous suspension of the test compound [prepared from a 25% wettable powder (Example F3, b) in accordance with WO 97/34485] or an emulsion of the test compound [prepared from a 25% emulsifiable concentrate (Example Fl c)] (500 l of water/ha). The test plants are then cultivated in the greenhouse under optimum conditions. The test is evaluated 3 weeks later on a rating scale of 1-9 (1=total damage, 9=no action). Ratings of 1 to 4 (especially of 1 to 3) denote good to very good herbicidal action.

[7] = system: Cyperus; experiment: Pre-emergent herbicidal action; conditions: 2000 g AS/ha sprayed immediately after sowing; evaluated 3 weeks later; rating scale 1-9 (1=total damage, 9=no action)
From the text: as §2

[8] = system: Stellaria; experiment: Pre-emergent herbicidal action; conditions: 2000 g AS/ha sprayed immediately after sowing; evaluated 3 weeks later; rating scale 1-9 (1=total damage, 9=no action)
From the text: as §2

[9] = system: Solanig; experiment: Pre-emergent herbicidal action; conditions: 2000 g AS/ha sprayed immediately after sowing; evaluated 3 weeks later; rating scale 1-9 (1=total damage, 9=no action)
From the text: as §2

[10] = system: Sinapsis; experiment: Pre-emergent herbicidal action; conditions: 2000 g AS/ha sprayed immediately after sowing; evaluated 3 weeks later; rating scale 1-9 (1=total damage, 9=no action)
From the text: as §2

SMILES	Post-emergent action, test plant Setaria, rating [1]	Post-emergent action, test plant Cyperus, rating [2]	Post-emergent action, test plant Stellaria, rating [3]	Post-emergent action, test plant Solanig, rating [4]	Post-emergent action, test plant Sinapsis, rating [5]	Pre-emergent action, test plant Setaria, rating [6]	Pre-emergent action, test plant Cyperus, rating [7]	Pre-emergent action, test plant Stellaria, rating [8]	Pre-emergent action, test plant Solanig, rating [9]	Pre-emergent action, test plant Sinapsis, rating [10]
COCc1c(S(C)(=O)=O)ccc(C(=O)C2=C(O)C3CCC(C3)C2=O)c1C (centres unmarked) [1,001, 4-hydroxy-3-(4-methylsulphonyl-3-methoxymethyl-2-methyl-benzoyl)-bicyclo[3.2.1]oct-3-en-2-one]	2	3	2	2	2	3	3	2	2	3
COCc1c(S(C)(=O)=O)ccc(C(=O)C2=C(O)C(C)(C)ON(C)C2=O)c1C [2,001, 5-hydroxy-4-(4-methylsulphonyl-3-methoxymethyl-2-methyl-benzoyl)-2,6,6-trimethyl-6.H.-[1,2]oxazin-3-one]	3	3	4	2	2	3	3	2	2	2
